Assay results: paper PMC11992225, “Antibacterial compounds against non-growing and intracellular bacteria” (npj Antimicrobials and Resistance, 2025)
Values joined by “and” are separate entries in the source; they are usually repeats but may differ in a detail not shown here. Identical values can stand only once.

Experiments:
[1] = system: non-growing UPEC CFT073; assay: Dose-dependent killing analysis (CFU spot-plating) of stationary-phase UPEC; assay type: cell-based, Escherichia coli
Method in brief: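 Killing assessed by CFU counts: overnight 37 °C LB agar spot plates (10 μl drops of 10-fold PBS dilutions) scored at the lowest dilution with distinct colonies. Samples were compound-treated non-growing UPEC CFT073, 200 μl per well. Performed as three biological replicates.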

[2] = system: non-growing P. aeruginosa DSM1117; assay: Dose-dependent killing analysis (CFU spot-plating) of stationary-phase P. aeruginosa; assay type: cell-based, Pseudomonas aeruginosa; conditions: P. aeruginosa; for log10(CFU/ml) of treated nongrowing bacteria (single replicates): before treatment 8.887
Method in brief: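 Viability by CFU: samples serially diluted 10-fold in PBS, spotted on LB agar, grown overnight at 37 °C, and colonies counted at the lowest resolvable dilution. Non-growing P. aeruginosa DSM1117 had been dosed for 24 h in 1:4 CA-MHB (pH 7.4); three biological replicates.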

[3] = system: non-growing S. aureus DSM2569; assay: Dose-dependent killing analysis (CFU spot-plating) of stationary-phase S. aureus; assay type: cell-based, Staphylococcus aureus; conditions: S. aureus; for log10(CFU/ml) of treated nongrowing bacteria (single replicates): before treatment 9,097
Method in brief: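 Survival was scored as CFU after overnight growth at 37 °C on LB agar, using spots from 10-fold PBS dilutions of treated cultures. Non-growing S. aureus DSM2569 had been exposed to compound for 24 h in 1:4 CA-MHB, pH 7.4. Three biological replicates were run.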

[4] = E. coli in 1:4 CA-MHB (pH 7.4), drug concentration 0.25
[5] = E. coli in 1:4 CA-MHB (pH 7.4), drug concentration 0.25, before treatment 8.977
[6] = E. coli in 1:4 CA-MHB (pH 7.4), drug concentration 0.5
[7] = E. coli in 1:4 CA-MHB (pH 7.4), drug concentration 0.5, before treatment 8.977
[8] = E. coli in 1:4 CA-MHB (pH 7.4), drug concentration 1
[9] = E. coli in 1:4 CA-MHB (pH 7.4), drug concentration 1, before treatment 8.977
[10] = E. coli in 1:4 CA-MHB (pH 7.4), drug concentration 2.5
[11] = E. coli in 1:4 CA-MHB (pH 7.4), drug concentration 2.5, before treatment 8.977
[12] = E. coli in 1:4 CA-MHB (pH 7.4), drug concentration 5
[13] = E. coli in 1:4 CA-MHB (pH 7.4), drug concentration 5, before treatment 8.977
[14] = E. coli in 1:4 CA-MHB (pH 7.4), drug concentration 10
[15] = E. coli in 1:4 CA-MHB (pH 7.4), drug concentration 10, before treatment 8.977
[16] = E. coli in LPM (pH 5.5), drug concentration 0.25
[17] = E. coli in LPM (pH 5.5), drug concentration 0.25, before treatment 7.350
[18] = E. coli in LPM (pH 5.5), drug concentration 0.5
[19] = E. coli in LPM (pH 5.5), drug concentration 0.5, before treatment 7.350
[20] = E. coli in LPM (pH 5.5), drug concentration 1
[21] = E. coli in LPM (pH 5.5), drug concentration 1, before treatment 7.350
[22] = E. coli in LPM (pH 5.5), drug concentration 2.5
[23] = E. coli in LPM (pH 5.5), drug concentration 2.5, before treatment 7.350
[24] = E. coli in LPM (pH 5.5), drug concentration 5
[25] = E. coli in LPM (pH 5.5), drug concentration 5, before treatment 7.350
[26] = E. coli in LPM (pH 5.5), drug concentration 10
[27] = E. coli in LPM (pH 5.5), drug concentration 10, before treatment 7.350

| Structure (SMILES) | killing, average Δlog10(CFU/ml) [1, 4] | log10(CFU/ml) of treated nongrowing bacteria (single replicates) [1, 5] | killing, average Δlog10(CFU/ml) [1, 6] | log10(CFU/ml) of treated nongrowing bacteria (single replicates) [1, 7] | killing, average Δlog10(CFU/ml) [1, 8] | log10(CFU/ml) of treated nongrowing bacteria (single replicates) [1, 9] | killing, average Δlog10(CFU/ml) [1, 10] | log10(CFU/ml) of treated nongrowing bacteria (single replicates) [1, 11] | killing, average Δlog10(CFU/ml) [1, 12] | log10(CFU/ml) of treated nongrowing bacteria (single replicates) [1, 13] | killing, average Δlog10(CFU/ml) [1, 14] | log10(CFU/ml) of treated nongrowing bacteria (single replicates) [1, 15] | killing, average Δlog10(CFU/ml) [1, 16] | log10(CFU/ml) of treated nongrowing bacteria (single replicates) [1, 17] | killing, average Δlog10(CFU/ml) [1, 18] | log10(CFU/ml) of treated nongrowing bacteria (single replicates) [1, 19] | killing, average Δlog10(CFU/ml) [1, 20] | log10(CFU/ml) of treated nongrowing bacteria (single replicates) [1, 21] | killing, average Δlog10(CFU/ml) [1, 22] | log10(CFU/ml) of treated nongrowing bacteria (single replicates) [1, 23] | other results |
| --- | --- | --- | --- | --- | --- | --- | --- | --- | --- | --- | --- | --- | --- | --- | --- | --- | --- | --- | --- | --- | --- |
| NC1CCN(c2nc3c(cc2F)c(=O)c(C(=O)O)cn3-c2ccc(F)cc2F)C1 (centres unmarked) [Tosufloxacin] | 0.576 log10(CFU/ml) | 8.477 log10(CFU/ml) and 8.279 log10(CFU/ml) and 8.447 log10(CFU/ml) | 0.736 log10(CFU/ml) | 8.602 log10(CFU/ml) and 8.041 log10(CFU/ml) and 8.079 log10(CFU/ml) | 1.185 log10(CFU/ml) | 8.301 log10(CFU/ml) and 7.845 log10(CFU/ml) and 7.230 log10(CFU/ml) | 2.064 log10(CFU/ml) | 7.041 log10(CFU/ml) and 6.699 log10(CFU/ml) and 7.000 log10(CFU/ml) | 2.460 log10(CFU/ml) | 6.845 log10(CFU/ml) and 6.230 log10(CFU/ml) and 6.477 log10(CFU/ml) | 2.856 log10(CFU/ml) | 6.778 log10(CFU/ml) and 5.380 log10(CFU/ml) and 6.204 log10(CFU/ml) | -0.097 log10(CFU/ml) | 7.342 log10(CFU/ml) and 7.000 log10(CFU/ml) and 8.000 log10(CFU/ml) | 0.356 log10(CFU/ml) | 7.079 log10(CFU/ml) and 6.000 log10(CFU/ml) and 7.903 log10(CFU/ml) | 0.195 log10(CFU/ml) | 7.279 log10(CFU/ml) and 6.342 log10(CFU/ml) and 7.845 log10(CFU/ml) | 0.183 log10(CFU/ml) | 7.079 log10(CFU/ml) and 6.519 log10(CFU/ml) and 7.903 log10(CFU/ml) | killing, average Δlog10(CFU/ml) [1, 24]: 0.243 log10(CFU/ml); log10(CFU/ml) of treated nongrowing bacteria (single replicates) [1, 25]: 7.146 log10(CFU/ml) and 6.699 log10(CFU/ml) and 7.477 log10(CFU/ml); killing, average Δlog10(CFU/ml) [1, 26]: 0.735 log10(CFU/ml); log10(CFU/ml) of treated nongrowing bacteria (single replicates) [1, 27]: 6.591 log10(CFU/ml) and 6.255 log10(CFU/ml) and 7.000 log10(CFU/ml); killing, average Δlog10(CFU/ml) ([2]; drug concentration 0.1): 0.209 log10(CFU/ml); log10(CFU/ml) of treated nongrowing bacteria (single replicates) ([2]; drug concentration 0.1): 8.477 log10(CFU/ml) and 8.954 log10(CFU/ml) and 8.602 log10(CFU/ml); killing, average Δlog10(CFU/ml) ([2]; drug concentration 0.5): 1.194 log10(CFU/ml); log10(CFU/ml) of treated nongrowing bacteria (single replicates) ([2]; drug concentration 0.5): 7.477 log10(CFU/ml) and 7.903 log10(CFU/ml) and 7.699 log10(CFU/ml); killing, average Δlog10(CFU/ml) ([2]; drug concentration 2.5): 3.719 log10(CFU/ml); log10(CFU/ml) of treated nongrowing bacteria (single replicates) ([2]; drug concentration 2.5): 5.602 log10(CFU/ml) (2×) and 4.301 log10(CFU/ml); killing, average Δlog10(CFU/ml) ([2]; drug concentration 10): 4.787 log10(CFU/ml); log10(CFU/ml) of treated nongrowing bacteria (single replicates) ([2]; drug concentration 10): =<4 log10(CFU/ml) (2×) and 4.301 log10(CFU/ml); killing, average Δlog10(CFU/ml) ([3]; drug concentration 0.1): 0.037 log10(CFU/ml); log10(CFU/ml) of treated nongrowing bacteria (single replicates) ([3]; drug concentration 0.1): 8.845 log10(CFU/ml) and 9.301 log10(CFU/ml) and 9.033 log10(CFU/ml); killing, average Δlog10(CFU/ml) ([3]; drug concentration 0.5): 0.330 log10(CFU/ml); log10(CFU/ml) of treated nongrowing bacteria (single replicates) ([3]; drug concentration 0.5): 8.690 log10(CFU/ml) and 8.869 log10(CFU/ml) and 8.740 log10(CFU/ml); killing, average Δlog10(CFU/ml) ([3]; drug concentration 2.5): 0.522 log10(CFU/ml); log10(CFU/ml) of treated nongrowing bacteria (single replicates) ([3]; drug concentration 2.5): 8.580 log10(CFU/ml) and 8.898 log10(CFU/ml) and 8.248 log10(CFU/ml); killing, average Δlog10(CFU/ml) ([3]; drug concentration 10): 0.688 log10(CFU/ml); log10(CFU/ml) of treated nongrowing bacteria (single replicates) ([3]; drug concentration 10): 8.531 log10(CFU/ml) and 8.663 log10(CFU/ml) and 8.033 log10(CFU/ml) |
| O=C(O)c1cn(-c2ccc(F)cc2)c2cc(N3CCNCC3)c(F)cc2c1=O [Sarafloxacin] | 0.025 log10(CFU/ml) | 9.301 log10(CFU/ml) and 8.477 log10(CFU/ml) and 9.079 log10(CFU/ml) | 0.172 log10(CFU/ml) | 9.000 log10(CFU/ml) and 8.954 log10(CFU/ml) and 8.462 log10(CFU/ml) | 0.391 log10(CFU/ml) | 9.114 log10(CFU/ml) and 8.532 log10(CFU/ml) and 8.114 log10(CFU/ml) | 1.103 log10(CFU/ml) | 8.398 log10(CFU/ml) and 7.903 log10(CFU/ml) and 7.322 log10(CFU/ml) | 1.741 log10(CFU/ml) | 7.491 log10(CFU/ml) and 7.176 log10(CFU/ml) and 7.041 log10(CFU/ml) | 2.143 log10(CFU/ml) | 7.279 log10(CFU/ml) and 6.845 log10(CFU/ml) and 6.380 log10(CFU/ml) | 0.072 log10(CFU/ml) | 7.079 log10(CFU/ml) and 6.477 log10(CFU/ml) and 8.279 log10(CFU/ml) | 0.127 log10(CFU/ml) | 6.778 log10(CFU/ml) (2×) and 8.114 log10(CFU/ml) | 0.084 log10(CFU/ml) | 6.477 log10(CFU/ml) and 7.146 log10(CFU/ml) and 8.176 log10(CFU/ml) | 0.011 log10(CFU/ml) | 7.114 log10(CFU/ml) and 7.000 log10(CFU/ml) and 7.903 log10(CFU/ml) | killing, average Δlog10(CFU/ml) [1, 24]: -0.00245 log10(CFU/ml); log10(CFU/ml) of treated nongrowing bacteria (single replicates) [1, 25]: 6.903 log10(CFU/ml) and 7.114 log10(CFU/ml) and 8.041 log10(CFU/ml); killing, average Δlog10(CFU/ml) [1, 26]: 0.353 log10(CFU/ml); log10(CFU/ml) of treated nongrowing bacteria (single replicates) [1, 27]: 6.699 log10(CFU/ml) and 6.845 log10(CFU/ml) and 7.447 log10(CFU/ml); killing, average Δlog10(CFU/ml) ([2]; drug concentration 0.1): 0.295 log10(CFU/ml); log10(CFU/ml) of treated nongrowing bacteria (single replicates) ([2]; drug concentration 0.1): 8.699 log10(CFU/ml) and 8.903 log10(CFU/ml) and 8.176 log10(CFU/ml); killing, average Δlog10(CFU/ml) ([2]; drug concentration 0.5): 1.719 log10(CFU/ml); log10(CFU/ml) of treated nongrowing bacteria (single replicates) ([2]; drug concentration 0.5): 7.301 log10(CFU/ml) and 6.602 log10(CFU/ml) and 7.602 log10(CFU/ml); killing, average Δlog10(CFU/ml) ([2]; drug concentration 2.5): 3.802 log10(CFU/ml); log10(CFU/ml) of treated nongrowing bacteria (single replicates) ([2]; drug concentration 2.5): 5.301 log10(CFU/ml) and 5.176 log10(CFU/ml) and 4.778 log10(CFU/ml); killing, average Δlog10(CFU/ml) ([2]; drug concentration 10): 4.887 log10(CFU/ml); log10(CFU/ml) of treated nongrowing bacteria (single replicates) ([2]; drug concentration 10): =<4 log10(CFU/ml); killing, average Δlog10(CFU/ml) ([3]; drug concentration 0.1): 0.203 log10(CFU/ml); log10(CFU/ml) of treated nongrowing bacteria (single replicates) ([3]; drug concentration 0.1): 8.845 log10(CFU/ml) and 8.903 log10(CFU/ml) and 8.934 log10(CFU/ml); killing, average Δlog10(CFU/ml) ([3]; drug concentration 0.5): 0.133 log10(CFU/ml); log10(CFU/ml) of treated nongrowing bacteria (single replicates) ([3]; drug concentration 0.5): 8.869 log10(CFU/ml) and 9.111 log10(CFU/ml) and 8.914 log10(CFU/ml); killing, average Δlog10(CFU/ml) ([3]; drug concentration 2.5): 0.565 log10(CFU/ml); log10(CFU/ml) of treated nongrowing bacteria (single replicates) ([3]; drug concentration 2.5): 8.681 log10(CFU/ml) and 8.914 log10(CFU/ml) and 8.000 log10(CFU/ml); killing, average Δlog10(CFU/ml) ([3]; drug concentration 10): 0.598 log10(CFU/ml); log10(CFU/ml) of treated nongrowing bacteria (single replicates) ([3]; drug concentration 10): 8.462 log10(CFU/ml) and 8.653 log10(CFU/ml) and 8.380 log10(CFU/ml) |
